Experiment [1] addresses T1, LasB (Pseudomonas aeruginosa, UniProt P14756).
T1 construct: uses as source of enzyme dialysed supernatant from P. aeruginosa PAO1; endogenous in cells; host or cells: P. aeruginosa PAO1 culture supernatant, filtered and dialysed
Nature of the experiment: Elastin assay to determine % inhibition (Elastin Congo-Red, dialysed culture supernatant). It counts as biochemical, P. aeruginosa PAO1. The settings on record: read-out: Elastin hydrolysis % inhibition @ 50 / 25 µM inhibitor concentration. As to the method: (§1) Experiments were therefore conducted (1) to measure the potency of inhibition of compounds of the invention against purified Pseudomonas aeruginosa LasB enzyme and also experiments were conducted (2) to measure the ability of compounds of the invention to inhibit LasB-catalysed elastin degradation. The first assay uses a commercial fluorescent synthetic peptide and purified LasB enzyme. The LasB hydrolysis kinetics are measured allowing the determination of the IC50 and Ki of the inhibitors; the second is a more physiological assay using dialysed Pseudomonas aeruginosa supernatant as source of enzyme, plus its natural substrate Elastin. It is an "end point assay" that determines the percentage of LasB inhibition by each compound for one particular time point and inhibitor concentration. Technical details are described below:
The Elastin assay uses as source of enzyme dialysed supernatant from P. aeruginosa PAO1 and the Elastin Congo-Red as substrate. The natural LasB substrate, elastin, is complexed with the congo-red dye (Elastin Congo-Red, ECR). The elastolysis activity from the culture supernatant will degrade elastin and release the congo-red dye into the supernatant. This red dye release can be measured with a spectrophotometer.
Method: To determine LasB elastase activity and assess compound inhibition, an overnight culture of P. aeruginosa strain PAO1 is diluted in LB medium. After reaching an OD600nm of 0.6, this culture is diluted and incubated for additional 18-24 hours in a shaking incubator. Culture supernatants are recovered by centrifugation and filtrated through a […] filter. These supernatants are dialysed (filtration molecules < 20kDa) into a 50 mM Tris-HCl pH 7.4, 2.5 mM CaCl2 solution at 4°C under agitation for 24 hours. Supernatant dialysed is then mixed volume/volume with the ECR suspension (20 mg/mL of ECR in 100 mM Tris-HCl pH 7.4 buffer supplemented with 1 mM CaCl2) supplemented with Triton X100 (final concentration of 0.01%) in presence of DMSO (positive control) and/or different concentrations of compound (routinely 50 to 1.56 µM). As a negative control, the dialysed supernatant is replaced by Tris-HCl solution (50 mM Tris-HCl pH 7.4, 2.5 mM CaCl2). The mixed reaction is then incubated overnight in a 37°C shaking incubator. The reaction supernatant is recovered by centrifugation and the release of congo-red is measured by its absorbance at 495 nm (OD495nm).
Percentage inhibition is determined using the following equation: ((OD495nmvalue of positive control−OD495nmvalue of negative control)−(OD495nmvalue of treated supernatant−OD495nmvalue of positive control))/(OD495nmvalue of positive control−OD495nmvalue of negative control) × 100. [formula]

The target of experiment [2] is T2, purified LasB protein from P. aeruginosa (Pseudomonas aeruginosa, UniProt P14756).
T2 construct: purchased Merck or Charles River Laboratories
T2 sequence (P14756 198-498): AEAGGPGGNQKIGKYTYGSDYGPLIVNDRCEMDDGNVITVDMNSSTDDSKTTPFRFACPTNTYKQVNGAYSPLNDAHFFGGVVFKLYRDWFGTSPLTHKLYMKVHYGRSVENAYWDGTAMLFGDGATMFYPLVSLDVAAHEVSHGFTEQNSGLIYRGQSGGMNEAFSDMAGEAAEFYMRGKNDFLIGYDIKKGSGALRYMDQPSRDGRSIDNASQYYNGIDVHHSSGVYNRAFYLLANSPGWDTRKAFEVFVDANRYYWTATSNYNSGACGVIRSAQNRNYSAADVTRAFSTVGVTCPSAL
Nature of the experiment: Fluorometric assay to determine Ki (Abz-Ala-Gly-Leu-Ala-p-Nitro-Benzyl-Amide substrate). The class given is biochemical. As to the method:
as §1
This assay uses commercially available substrate (Abz-Ala-Gly-Leu-Ala-p-Nitro-Benzyl-Amide (Ex: 340 nm, Em: 415 nm) from Peptide International) and purified LasB protein from P. aeruginosa (provided by Merck or Charles River Laboratories). It is performed to determine LasB elastase activity and assess compound inhibition in 96-well plate format. All compounds of Formula (I) were assessed using the method described below.
Method: 10 to 140 ng/ml purified LasB is incubated with 250 µM Abz-Ala-Gly-Leu-Ala-p-Nitro-Benzyl-Amide in 50 mM Tris-HCl pH 7.4, 2.5 mM CaCl2, 0.01% of Triton X100 at 37°C. LasB activity (corresponding to fluorescence emission induced by substrate hydrolysis) is measured over 30 min at 37°C with a fluorescence plate reader such as the Perkin Elmer Envision or similar. Different range of inhibitor concentrations are routinely assessed depending of inhibitor potency from 0.0016 to 200 µM (2-fold dilutions series) in order to determine IC50.
The equation used to calculate the Ki from IC50 is: Ki = IC50 / (1+([S]/Km)) where [S] = 250 µM and Km = 214 µM.

Usually Ki stands for a measure of affinity in units of concentration, obtained from inhibition or displacement.

Structures are written as SMILES. Where two headings read alike, the source gives them in different places. Bounds are passed on as bounds.

T1 sequence (P14756 198-498): as above

Regarding `COc1cc(OCCC[N+](C)(C)C)ccc1-c1csc(CNC(=O)C2(CC(=O)[O-])Cc3cc(F)c(F)cc3C2)n1` [Example 81, 2-[5,6-difluoro-2-[[4-[2-methoxy-4-[3-(trimethylammonio)propoxy]phenyl]thiazol-2-yl]methylcarbamoyl]indan-2-yl] acetate], in experiment [1], the inhibition at 25 µM was 60 to 75%. Moreover, the Ki in experiment [2] was in the range of 50 to 200 nM.

With `COc1cc(OCCC[N+]2(C)CCOCC2)ccc1-c1csc(CNC(=O)C2(CC(=O)[O-])Cc3cc(F)c(F)cc3C2)n1` [Example 70, 2-[5,6-difluoro-2-[[4-[2-methoxy-4-[3-(4-methylmorpholin-4-ium-4-yl)propoxy]phenyl]thiazol-2-yl]methylcarbamoyl]indan-2-yl]acetate], in experiment [1], the inhibition at 25 µM was in the range of 60 to 75%. Further, the Ki in experiment [2] lay in the range of 50 to 200 nM.

Turning to `COc1ccc(-c2csc(CNC(=O)C3(CC(=O)O)Cc4ccccc4C3)n2)cc1` [Example 6, 2-[2-[[4-(4-methoxyphenyl)thiazol-2-yl]methylcarbamoyl]indan-2-yl]acetic acid], the inhibition at 25 µM in experiment [1] is over 75%. The same compound showed a Ki in experiment [2] of 50 to 200 nM.

As to `CN1CCN(CCCn2cc(-c3csc(CNC(=O)C4(CC(=O)O)Cc5ccccc5C4)n3)cn2)CC1` [Example 108, 2-[2-[[4-[1-[3-(4-methylpiperazin-1-yl)propyl]pyrazol-4-yl]thiazol-2-yl]methylcarbamoyl]indan-2-yl]acetic acid], in experiment [1], the inhibition at 25 µM was in the range of 60 to 75%. The inhibition constant (Ki) in experiment [2] is 50 to 200 nM.

Consider `CN1CCN(C(=O)CN2CCN(c3ccc(-c4csc(CNC(=O)C5(CC(=O)O)Cc6ccccc6C5)n4)cc3)CC2)CC1` [Example 36, 2-[2-[[4-[4-[4-[2-(4-methylpiperazin-1-yl)-2-oxo-ethyl]piperazin-1-yl]phenyl]thiazol-2-yl]methylcarbamoyl]indan-2-yl]acetic acid], for which the inhibition at 25 µM in experiment [1] was over 75%. The same compound yielded a Ki in experiment [2] of under 50 nM.

With `C[N+]1(C)CCN(C(=O)COc2ccc(-c3csc(CNC(=O)C4(CC(=O)[O-])Cc5ccccc5C4)n3)cc2)CC1` [Example 47, 2-[2-[[4-[4-[2-(4,4-dimethylpiperazin-4-ium-1-yl)-2-oxo-ethoxy]phenyl]thiazol-2-yl]methylcarbamoyl]indan-2-yl]acetate], the inhibition at 25 µM in experiment [1] was 60 to 75%. This compound registered a Ki in experiment [2] of 200 to 10000 nM.

In the case of `COc1ccc(-c2csc(CNC(=O)C3(CC(=O)O)Cc4ccccc4C3)n2)cc1S(=O)(=O)N1CCC(N(C)C)CC1` [Example 121, 2-[2-[[4-[3-[[4-(dimethylamino)-1-piperidyl]sulfonyl]-4-methoxy-phenyl]thiazol-2-yl]methylcarbamoyl]indan-2-yl]acetic acid], the inhibition at 25 µM in experiment [1] fell in the range of 60 to 75%. The compound further gave a Ki in experiment [2] of 50 to 200 nM.

For the compound `O=C(O)CC1(C(=O)NCc2nc(-c3ccc(Cl)cc3)cs2)Cc2ccccc2C1` [Example 7, 2-[2-[[4-(4-chlorophenyl)thiazol-2-yl]methylcarbamoyl]indan-2-yl]acetic acid], the inhibition at 25 µM in experiment [1] is 60 to 75%. The Ki in experiment [2] lay within 50 to 200 nM.

For `COc1ccccc1-c1csc(CNC(=O)C2(CC(=O)O)Cc3ccccc3C2)n1` [Example 146, 2-[2-[[4-(2-methoxyphenyl)thiazol-2-yl]methylcarbamoyl]indan-2-yl]acetic acid], in experiment [1], the inhibition at 25 µM was 60 to 75%. For the same compound, the inhibition constant (Ki) in experiment [2] was 50 to 200 nM.

As for `CN(C)CC(=O)N1CCC(n2cc(-c3csc(CNC(=O)C4(CC(=O)O)Cc5ccccc5C4)n3)cn2)CC1` [Example 103, 2-[2-[[4-[1-[1-[2-(dimethylamino)acetyl]-4-piperidyl]pyrazol-4-yl]thiazol-2-yl]methylcarbamoyl]indan-2-yl]acetic acid], the inhibition at 25 µM in experiment [1] lay within 60 to 75%. This compound also came in with a Ki in experiment [2] of 200 to 10000 nM.

On to `C[N+]1(CCOc2ccc(-c3csc(CNC(=O)C4(CC(=O)[O-])Cc5ccccc5C4)n3)cc2S(C)(=O)=O)CCOCC1` [Example 136, 2-[2-[[4-[4-[2-(4-methylmorpholin-4-ium-4-yl)ethoxy]-3-methylsulfonyl-phenyl]thiazol-2-yl]methylcarbamoyl]indan-2-yl]acetate], for which the inhibition at 25 µM in experiment [1] lay in the range of 60 to 75%. In experiment [2], this compound displayed a Ki of 50 to 200 nM.

For `C[n+]1ccc(COc2ccc(-c3csc(CNC(=O)C4(CC(=O)[O-])Cc5ccccc5C4)n3)cn2)cc1` [Example 143, 2-[2-[[4-[6-[(1-methylpyridin-1-ium-4-yl)methoxy]-3-pyridyl]thiazol-2-yl]methylcarbamoyl]indan-2-yl]acetate], the inhibition at 25 µM in experiment [1] fell in the range of 10 to 60%. The compound also had a Ki in experiment [2] of 50 to 200 nM.

Regarding `CN1CCN(S(=O)(=O)c2cc(-c3csc(CNC(=O)C4(CC(=O)O)Cc5ccccc5C4)n3)ccc2OCCN2CCOCC2)CC1` [Example 132, 2-[2-[[4-[3-(4-methylpiperazin-1-yl)sulfonyl-4-(2-morpholinoethoxy)phenyl]thiazol-2-yl]methylcarbamoyl]indan-2-yl]acetic acid], the inhibition at 25 µM in experiment [1] was over 75%. In experiment [2], this compound came in with a Ki of under 50 nM.

In the case of `CC(=O)N1CCN(CCCn2cc(-c3csc(CNC(=O)C4(CC(=O)O)Cc5ccccc5C4)n3)cn2)CC1` [Example 106, 2-[2-[[4-[1-[3-(4-acetylpiperazin-1-yl)propyl]pyrazol-4-yl]thiazol-2-yl]methylcarbamoyl]indan-2-yl]acetic acid], in experiment [1], the inhibition at 25 µM fell in the range of 60 to 75%. The compound further showed a Ki in experiment [2] of 50 to 200 nM.

`COc1cc(OCCCN2CCOCC2)ccc1-c1csc(CNC(=O)C2(CC(=O)O)Cc3ccccc3C2)n1` [Example 71, 2-[2-[[4-[2-methoxy-4-(3-morpholinopropoxy)phenyl]thiazol-2-yl]methylcarbamoyl]indan-2-yl]acetic acid]: the inhibition at 25 µM in experiment [1] was over 75%. This compound returned a Ki in experiment [2] of under 50 nM.

As to `COc1cc(OCCN2CCN(C)C(=O)C2)ccc1-c1csc(CNC(=O)C2(CC(=O)O)Cc3ccccc3C2)n1` [Example 83, 2-[2-[[4-[2-methoxy-4-[2-(4-methyl-3-oxo-piperazin-1-yl)ethoxy]phenyl]thiazol-2-yl]methylcarbamoyl]indan-2-yl]acetic acid], in experiment [1], the inhibition at 25 µM is over 75%. The Ki in experiment [2] was under 50 nM.

Consider `CN(C)C1CN(c2ccc(-c3csc(CNC(=O)C4(CC(=O)O)Cc5ccccc5C4)n3)cc2)C1` [Example 27], for which, in experiment [1], the inhibition at 25 µM was in the range of 60 to 75%. Also, in experiment [2] (Ki calculated from IC50, [S] = 250 µM, Km = 214 µM, 37°C, pH 7.4), the inhibition constant Ki was 50 to 200 nM.

Turning to `O=C(O)CC1(C(=O)NCc2nc(-c3ccccc3OC(F)(F)F)cs2)Cc2ccccc2C1` [Example 145, 2-[2-[[4-[2-(trifluoromethoxy)phenyl]thiazol-2-yl]methylcarbamoyl]indan-2-yl]acetic acid], in experiment [1], the inhibition at 25 µM lay in the range of 60 to 75%. The compound further had a Ki in experiment [2] of 50 to 200 nM.

On to `COc1cc(OCC[N+]2(C)CCOCC2)ccc1-c1csc(CNC(=O)C2(CC(=O)[O-])Cc3ccccc3C2)n1` [Example 67, 2-[2-[[4-[2-methoxy-4-[2-(4-methylmorpholin-4-ium-4-yl)ethoxy]phenyl]thiazol-2-yl]methylcarbamoyl]indan-2-yl] acetate], for which, in experiment [1], the inhibition at 25 µM was in the range of 60 to 75%. In experiment [2], this compound showed a Ki of 50 to 200 nM.

For the compound `C[n+]1ccc(Cn2cc(-c3csc(CNC(=O)C4(CC(=O)[O-])Cc5ccccc5C4)n3)cn2)cc1` [Example 120, 2-[2-[[4-[1-[(1-methylpyridin-1-ium-4-yl)methyl]pyrazol-4-yl]thiazol-2-yl]methylcarbamoyl]indan-2-yl]acetate], in experiment [1], the inhibition at 25 µM was 60 to 75%. The same compound showed a Ki in experiment [2] of 50 to 200 nM.
